Measured values from the METLIN SMRT retention time set (Domingo-Almenara et al. 2019).

Test: gradient 5% acetonitrile 3 min, to 50% in 2 min, to 85% in 15 min, held 3 min, 100 µL/min
Conditions: column: Zorbax Extend-C18 2.1 x 50 mm; eluents: water / acetonitrile, 0.1% formic acid
How it was run: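 Mixtures of ~100 pure standards were chromatographed on a Zorbax Extend-C18 column (2.1 × 50 mm, 1.8 μm) at 100 μL/min using water and acetonitrile, each with 0.1% formic acid. Detection used a quadrupole time-of-flight mass spectrometer in positive and negative ionization mode, and data collection spanned 3 months. Retention time was obtained from adduct peaks picked computationally and each checked manually.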

RP-LC retention time [s]	SMILES
705	COCC(=O)Nc1nc(-c2ccc3c(c2)NC(=O)CO3)c(C)s1
852	COc1cccc(N2N=NC3C(=O)N(c4ccc(OC)c(OC)c4)C(=O)C32)c1 (configuration not stated)
747	CCn1cnc(S(=O)(=O)N2CCCC(C(=O)NCc3cccc(C)c3)C2)c1 (configuration not stated)
984	CC(C)S(=O)(=O)N1CC(Oc2ccccc2-c2nc(C3CC3)no2)C1
593	CC(C)N1CC(CNC(=O)c2ccco2)C2(CCCCC2)C1 (configuration not stated)
689	O=C(c1ccncc1)N1CCC(n2c(-c3ccco3)nc3cccnc32)C1 (configuration not stated)
794	COC(=O)CNC(=O)C1COc2ccc(NC(=O)c3ccc(Cl)cc3)cc2C1 (configuration not stated)
767	CCCN(C(=O)Cc1c(C(=O)O)c(C)cn1CC)c1cccc(Cl)c1
1310	O=S(=O)(c1ccc(Cl)s1)N1CCc2nc(-c3ccc(Cl)cc3)ncc2C1
936	CCc1nn2c(CNC(=O)c3cccc(C)c3)c(-c3ccccc3)nc2s1
690	CCCn1cnc2cc(CNC(=O)c3ccc(C(C)C)cc3)ccc21
1060	COc1ccc(-c2nc(Nc3ccc(C)cc3)sc2C)cc1
890	Cc1cc(NC(=O)C(C)Oc2ccc(-c3cnc4ccccc4n3)cc2)no1 (configuration not stated)
656	CC(C)c1noc(C2CCCN(S(C)(=O)=O)CCC(=O)NCC2)n1 (configuration not stated)
1210	Cc1sc(-c2nc(-c3ccccc3)no2)cc1S(=O)(=O)N1CCN(c2ncccn2)CC1
588	O=C(NCc1cccnc1)C(=O)NCc1ccc2c(c1)OCO2
560	CCN1CCN(c2cc(C)c3cc(NC(=O)CC(C)C)ccc3n2)CC1
757	Cc1cccc(C)c1Nc1c(-c2ccccc2F)nc2cccc(C)n12
627	CC(=O)N(C)CCc1noc(C2CN(C(=O)Cc3cccs3)C2)n1
950	Cc1ccc(-c2noc(Cn3ccn(-c4cc(C)ccc4C)c(=O)c3=O)n2)cc1
784	CC(C)c1ccc(NC(=O)Cn2ncc3c(c2=O)N(C2CC2)C(=O)CS3)cc1
659	Cc1cc(NC(=O)C(=O)NCCCn2ccnc2)ccc1Br
976	CCc1nc(-c2csc(S(=O)(=O)N3CCCC(C(=O)NCc4ccc(F)cc4)C3)c2)no1 (configuration not stated)

RP-LC retention time [s]	SMILES
845	Cc1ccc(C)c(NC(=O)Cc2csc3nc(-c4ccccc4)cn23)c1
758	COc1ccc(NC(=O)C2CC(=O)N(CCc3c[nH]c4ccc(F)cc34)C2)cc1 (configuration not stated)
923	CCC(=O)n1nc(-c2ccc(C)c(C)c2)nc1N
716	COc1ccccc1NS(=O)(=O)c1ccc2c(c1)CCCC(=O)N2
869	COc1cccc(-n2ccc(=O)c(-c3nc(-c4ccccc4F)no3)n2)c1
837	O=C(NC1CCCC1)c1nc(-c2cn(-c3ccc(Cl)cc3)nn2)no1
534	Cn1nc2n(c1=O)CCN(C(=O)c1cc(CN3CCOCC3)on1)CC2
900	Cc1ccc2c(c1)N(S(C)(=O)=O)CCC(C(=O)NC(C)c1ccccc1)O2 (configuration not stated)
630	CCn1c(CCc2ccccc2NS(=O)(=O)c2c(C)n[nH]c2C)nc2ccccc21
808	Cc1cc(Cl)ccc1S(=O)(=O)N1CC(Cc2nncn2C2CCCC2)C1
776	Cc1ccc(CN2CCN(C3CCN(C(=O)Nc4ccc(F)cc4)CC3)C(=O)C2=O)cc1
801	COCCNc1nnc(-c2nc(-c3ccc(F)cc3)no2)c2ccccc12
627	O=C(Cn1c(=O)c2cccn2c2ccc(F)cc21)NCCCN1CCCCCC1
792	CCOC(=O)N1CCc2nc(NC(=O)c3ccc([N+](=O)[O-])s3)sc2C1
665	Cc1ccc(C(=O)NCc2cnoc2-c2ccc(F)cc2)cn1
875	Cc1oc(-c2ccc(NC(=O)c3ccc(N(C)C)cc3)cc2)nc1Cn1cccn1
580	O=C(CCc1nnn2c1CN(C(=O)c1ccoc1)CC2)N1CCOCC1
890	O=C(Cc1cccn1-c1cccc(Cl)c1)NCc1ccc(N2CCOCC2)cc1
1050	O=S(=O)(NCc1ccco1)c1cccc(-c2nc(-c3ccccc3)no2)c1
1120	COc1ccccc1-c1nc(Cn2nnc(-c3nc(-c4ccccc4Cl)no3)c2C)c(C)o1
897	O=C(NC1CCCC1)c1nc(C(=O)N2CCN(c3ccccc3)CC2)cs1
1140	Cc1ccc(Nc2c(-c3cccc(Br)c3)nc3ccc(Br)cn23)cc1
592	CCOC(=O)c1ccc(S(=O)(=O)NCCCn2nc(-c3ccncc3)ccc2=O)cc1

RP-LC retention time [s]	SMILES
653	CCC(=O)Nc1ccc(-n2cnc(C(=O)N3CCN(c4ccc(OC)cc4)CC3)c2)nc1
1040	O=C(c1ccoc1)N1CC(Oc2ccc(-c3nc(-c4ccccc4)no3)cc2)C1
800	O=C(Nc1ccccc1)c1ccc2c(cnn2CC(=O)N2CCCCCC2)c1
877	Cc1cccc(-c2csc3c(=O)n(Cc4ccccn4)cnc23)c1
573	CCc1ccc(-c2cn3cc(C(=O)NCCN4CCN(C)CC4)ccc3n2)cc1
687	CCc1ccc(NC(=O)C2CCN(c3c(C(=O)N(CC)CC)cnc4snc(C)c34)CC2)cc1
790	c1cc2nncn2nc1NC1CCCCC1
733	COc1ccc(C(=O)N2C[C@@H]3C[C@H](NC(=O)c4cccs4)[C@H]2C3)cc1F
1030	Cc1cc(Cl)ccc1NS(=O)(=O)c1ccc2onc(C(=O)N3CCCC3)c2c1
974	COc1cc(-c2noc(CN3C(=O)COc4cc(C)ccc43)n2)cc(OC)c1OC
1040	Cc1ccc(-c2cc(C(=O)NCCc3sccc3C)c(C)[nH]2)cc1C
913	Fc1ccc(OCc2nnc3sc(Cc4ccc5c(c4)OCCO5)nn23)cc1
884	CCC(=O)Oc1ccc(NC(=O)c2ccc(S(=O)(=O)N3CCCC3)cc2)cc1
855	CCc1ccc(Nc2nc(C(=O)NCCc3ccco3)nc3ccccc23)cc1
719	CN(C)C(=O)c1ccc2c(c1)nnn2CCNC(=O)Nc1cc(Cl)ccc1Cl
702	O=C(O)c1ccccc1-c1c2ccc(=O)c(O)c-2oc2c(O)c(O)ccc12
597	CCN1CCCn2cc(S(=O)(=O)NC3CCN(Cc4ccccc4)CC3)cc2C1=O
684	COc1ccc(-c2cc(C(=O)NCC(c3ccc(C)o3)N(C)C)no2)cc1 (configuration not stated)
758	COc1ccc(C(=O)NCCc2c[nH]c3ccc(F)cc23)cc1OC
593	CC(C)CNC(=O)N(C)Cc1nc2cc(C(=O)NC(C)C)ccc2n1C
765	Cc1noc2nc(C)n(CC(=O)Nc3ccc(F)cc3)c(=O)c12
